Laboratory results: patent US4820727A, “N-acyl-N-naphthoylglycines as aldose reductase inhibitors” (American Home Products Corporation, priority 1987, dated 1989)
Blank lines part the entries; values can stand above or below the molecule they belong to.

Columns and labels:
[1] = biological target: T1, aldose reductase (Bos taurus, UniProt P16116); assay: In vitro aldose reductase inhibition (modified Hayman and Kinoshita procedure, enzyme from bovine lens); assay type: biochemical; details: for inhibition at 0.04 µM: read-out: % Inhibition IN VITRO 4 × 10^-8 M; for inhibition at 10 µM: read-out: % Inhibition IN VITRO 10^-5 M; for inhibition at 1 µM: read-out: % Inhibition IN VITRO 10^-6 M; for inhibition at 0.1 µM: read-out: % Inhibition IN VITRO 10^-7 M
T1 construct: preparation of the enzyme from bovine lens; from tissue; host or cells: bovine lens
From the text: In the present case the procedure of Hayman and Kinoshita was modified in that the final chromatography step was omitted in the preparation of the enzyme from bovine lens.

[2] = system: dulcitol accumulation; assay: Galactosemic rats, % lowering of dulcitol (galactitol) accumulation in vivo; design: species or system Sprague-Dawley rats; details: for % Lowering dulcitol accumulation IN VIVO, D: diaphragm; for % Lowering dulcitol accumulation IN VIVO, D / % Lowering dulcitol accumulation IN VIVO, L: 4 days; for % Lowering dulcitol accumulation IN VIVO, L: lens
From the text: Such experiments are exemplified hereinbelow after the listing of the following general comments pertaining to these experiments:
(a) Four or more groups of six male rats, 50-70 g, Sprague-Dawley strain, were used. The first group, the control group, was fed a mixture of laboratory chow (rodent Laboratory Chow, Purina) and glucose at 20% (w/w %) concentration. […] The test compound was either admixed to the diet or administered by gavage. In experiments involving compound administration in the diet, the average dose administered was calculated from the actual food intake of the animals in each group. The concentration of galactose in the diet of the treated groups was the same as that for the untreated galactosemic group.
(b) After four days, the animals were killed by decapitation. The eyeballs were removed and punctured with a razor blade; the freed lenses were rolled gently on filter paper and weighed. The sciatic nerves were dissected as completely as possible and weighed. Both tissues when frozen can be kept up to two weeks before being analyzed for galactitol.
Only two minor reagent changes were made: (a) the rinsing mixture was an aqueous 5% (w/v) trichloroacetic acid solution and (b) the stock solution was prepared by dissolving 25 mg of dulcitol in 100 mL of an aqueous trichloroacetic acid solution. [N.B.: For each experiment the average value found in the tissue from rats fed the glucose diet was subtracted from the individual values found in the corresponding tissue in galactose-fed rats to obtain the amount of polyol accumulated.]
The figures under L, N, and D represent the percentage decrease of galactitol accumulation in the tissues of the lens, sciatic nerve, and diaphragm, respectively, for treated rats as compared to untreated rats.

[3] = system: Sciatic Nerve Polyol Accumulation; assay: Two-Week Streptozocin-Diabetic Rat Model, % lowering of sciatic nerve polyol accumulation; assay type: in vivo, Sprague-Dawley rats; details: gavage, 14 days
From the text: A second in vivo model examined the effect of the compounds of the present invention on sorbitol accumulation in the tissues of 14-day streptozocin (STZ) (Upjohn) diabetic rats.
In each of the studies male Sprague-Dawley rats from Charles River Labs, Kingston, NY, weighing 200 to 250 g, were used. The animals were weighed and observed for 5 days prior to the start of the study.
In each study the rats were randomly assigned by weight into groups of 15 animals except for group I which contained 8 animals. The groups were treated as follows:
Group II: STZ, 110 mg/kg i.p.
Group IV: STZ, 110 mg/kg i.p. followed by various doses of a compound of the present invention given by gavage for 14 days, beginning on the day of induction of diabetes.
Following an overnight fast (water ad lib) the animals in groups II-IV were given by i.p. injection 110 mg STZ per kg body weight. The STZ was dissolved in cold citric acid, 0.03M, pH 4.5 and injected within 5 minutes of being dissolved. Control rats (group I) were injected with buffer only. One hour following the injection, standard laboratory chow (Rodent lab chow 5001, Purina) was placed in the cages.
Two days after STZ injection plasma glucose levels (from the tail vein) were determined following a 4 hour fast. Excluded from the study were animals whose plasma glucose was below 300 mg/dl. Control animals with plasma glucose levels greater than 200 mg/dl were also excluded.
On the morning of the 14th day following STZ injection the animals were fasted 4 hours prior to sacrificing by decapitation. The blood was collected into heparin containing tubes and placed on ice. Both lenses and sciatic nerves were removed immediately, weighed, frozen, and stored at -20° C. until analyzed for sorbitol. The RBCs were collected by centrifugation, the plasma was removed and the cells were washed once with 10 volumes of cold saline. The washed packed RBCs were divided into 1 mL aliquots, extracted with cold perchloric acid and the acid extracts were stored at -20° C. until analyzed for sorbitol.

[4] = system: Sciatic Nerve Polyol Accumulation; assay: as above; assay type: in vivo, Sprague-Dawley rats; details: gavage, 14 days; remark: listed apart in the source
[5] = 15 mg/kg, N.S. = not significant
[6] = 5.2 mg/kg, N.S. = not significant
[7] = 27 mg/kg, N.S. = not significant

SMILES: CCOC(=O)N(CC(=O)O)C(=O)c1c(F)ccc2c(C(F)(F)F)c(OC)ccc12 [Example 3, N-(Ethoxycarbonyl)-N-[[2-fluoro-6-methoxy-5-(trifluoromethyl)-1-naphthalenyl]carbonyl]glycine]
- inhibition at 0.04 µM [1]: 67%
- inhibition at 10 µM [1]: 99%
- inhibition at 1 µM [1]: 95%
- inhibition at 0.1 µM [1]: 87%
- % Lowering dulcitol accumulation IN VIVO, D ([2]; 15 mg/kg): 59%
- % Lowering dulcitol accumulation IN VIVO, D ([2]; 25 mg/kg): 65%
- % Lowering dulcitol accumulation IN VIVO, L [2, 5]: N.S.
- % Lowering dulcitol accumulation IN VIVO, L ([2]; 25 mg/kg, N.S. = not significant): N.S

SMILES: COC(=O)N(CC(=O)O)C(=O)c1c(Cl)ccc2c(C(F)(F)F)c(OC)ccc12 [Example 4, N-[[2-Chloro-6-methoxy-5-(trifluoromethyl)-1-naphthalenyl]carbonyl]-N-(methoxycarbonyl)glycine]
- inhibition at 0.04 µM [1]: 57%
- inhibition at 10 µM [1]: 98%
- inhibition at 1 µM [1]: 95%
- inhibition at 0.1 µM [1]: 85%
- % Lowering dulcitol accumulation IN VIVO, D ([2]; 26 mg/kg): 68%
- % Lowering dulcitol accumulation IN VIVO, L ([2]; 26 mg/kg, N.S. = not significant): N.S.

SMILES: COC(=O)N(CC(=O)O)C(=O)c1c(OCC(F)(F)F)ccc2c(C(F)(F)F)c(OC)ccc12 [Example 6, N-[[6-Methoxy-2-(2,2,2-trifluoroethoxy)-5-(trifluoromethyl)-1-naphthalenyl]carbonyl]-N-(methoxycarbonyl)glycine]
- inhibition at 0.04 µM [1]: 56%
- inhibition at 0.1 µM [1]: 83%
- % Lowering dulcitol accumulation IN VIVO, D ([2]; 27 mg/kg): 49%
- % Lowering dulcitol accumulation IN VIVO, L [2, 7]: N.S.

SMILES: CCOC(=O)N(CC(=O)O)C(=O)c1c(OCC(F)(F)F)ccc2c(C(F)(F)F)c(OC)ccc12 [Example 7, N-(Ethoxycarbonyl)-N-[[6-methoxy-2-(2,2,2-trifluoroethoxy)-5-(trifluoromethyl)-1-naphthalenyl]carbonyl]glycine]
- inhibition at 0.04 µM [1]: 47%
- inhibition at 10 µM [1]: 98%
- inhibition at 1 µM [1]: 90%
- inhibition at 0.1 µM [1]: 78%
- % Lowering dulcitol accumulation IN VIVO, D ([2]; 27 mg/kg): 39%
- % Lowering dulcitol accumulation IN VIVO, L [2, 7]: N.S.

SMILES: CCOC(=O)N(CC(=O)O)C(=O)c1c(Cl)ccc2c(C(F)(F)F)c(OC)ccc12 [Example 8, N-[[2-Chloro-6-methoxy-5-(trifluoromethyl)-1-naphthalenyl]carbonyl]-N-(ethoxycarbonyl)glycine]
- inhibition at 0.04 µM [1]: 47%
- inhibition at 0.1 µM [1]: 79%
- % Lowering dulcitol accumulation IN VIVO, D ([2]; 50 mg/kg): 47%
- % Lowering dulcitol accumulation IN VIVO, L ([2]; 50 mg/kg, N.S. = not significant): N.S.

SMILES: CCOC(=O)N(CC(=O)O)C(=O)c1c(Br)ccc2c(C(F)(F)F)c(OC)ccc12 [Example 9, N-[[2-Bromo-6-methoxy-5-(trifluoromethyl)-1-naphthalenyl]carbonyl]-N-(ethoxycarbonyl)glycine]
- inhibition at 0.04 µM [1]: 52%
- inhibition at 10 µM [1]: 98%
- inhibition at 1 µM [1]: 93%
- inhibition at 0.1 µM [1]: 76%
- % Lowering dulcitol accumulation IN VIVO, D ([2]; 43 mg/kg): 27%
- % Lowering dulcitol accumulation IN VIVO, L ([2]; 43 mg/kg, N.S. = not significant): N.S.

SMILES: COc1ccc2c(C(=S)N(C)CC(=O)O)cccc2c1C(F)(F)F [Tolrestat, N-[[6-methoxy-5-(trifluoromethyl)-1-naphthalenyl]thioxo-methyl]-N-methylglycine, reference compound]
- % Lowering dulcitol accumulation IN VIVO, L ([2]; 9 mg/kg, N.S. = not significant): N.S.
- % Lowering of Sciatic Nerve Polyol Accumulation, Sorbitol (%) ([3]; 6 mg/kg): 80%
- % Lowering of Sciatic Nerve Polyol Accumulation, Fructose (%) ([4]; 6 mg/kg): 63%

Continued, in another order:

- inhibition at 0.04 µM [1]: 59%
- inhibition at 10 µM [1]: 99%
- inhibition at 1 µM [1]: 95%
- inhibition at 0.1 µM [1]: 86%
SMILES: COC(=O)N(CC(=O)O)C(=O)c1c(F)ccc2c(C(F)(F)F)c(OC)ccc12 [Example 1, N-[[2-fluoro-6-methoxy-5-(trifluoromethyl)-1-naphthalenyl]carbonyl]-N-(methoxycarbonyl)glycine]
- results in the sciatic nerve compared with tolrestat ([2]; 10 mg/kg/day vs tolrestat at 9 mg/kg/day, sciatic nerve): comparable results
- % Lowering dulcitol accumulation IN VIVO, D ([2]; 5 mg/kg): 52%
- % Lowering dulcitol accumulation IN VIVO, D ([2]; 10 mg/kg): 62%
- % Lowering dulcitol accumulation IN VIVO, L ([2]; 5 mg/kg, N.S. = not significant): N.S.
- % Lowering dulcitol accumulation IN VIVO, L ([2]; 10 mg/kg, N.S. = not significant): N.S.
- % Lowering dulcitol accumulation IN VIVO, L ([2]; 14 mg/kg, N.S. = not significant): N.S.
- % Lowering dulcitol accumulation IN VIVO, L [2, 5]: N.S.
- % Lowering of Sciatic Nerve Polyol Accumulation, Sorbitol (%) ([3]; 2 mg/kg): 38%
- % Lowering of Sciatic Nerve Polyol Accumulation, Sorbitol (%) ([3]; 5 mg/kg): 39%
- % Lowering of Sciatic Nerve Polyol Accumulation, Sorbitol (%) ([3]; 10 mg/kg): 85%
- % Lowering of Sciatic Nerve Polyol Accumulation, Sorbitol (%) ([3]; 15 mg/kg): 85%
- % Lowering of Sciatic Nerve Polyol Accumulation, Fructose (%) ([4]; 2 mg/kg): 22%
- % Lowering of Sciatic Nerve Polyol Accumulation, Fructose (%) ([4]; 5 mg/kg): 36%
- % Lowering of Sciatic Nerve Polyol Accumulation, Fructose (%) ([4]; 10 mg/kg): 72%
- % Lowering of Sciatic Nerve Polyol Accumulation, Fructose (%) ([4]; 15 mg/kg): 86%

- inhibition at 10 µM [1]: 2%
- inhibition at 1 µM [1]: 0%
SMILES: COC(=O)N(CC(N)=O)C(=O)c1c(F)ccc2c(C(F)(F)F)c(OC)ccc12 [Example 2, [[[2-Fluoro-6-methoxy-5-(trifluoromethyl)-1-naphthalenyl]carbonyl](methoxycarbonyl)amino]acetamide]
- % Lowering dulcitol accumulation IN VIVO, D [2, 6]: N.S.
- % Lowering dulcitol accumulation IN VIVO, D ([2]; 10.4 mg/kg): 23%
- % Lowering dulcitol accumulation IN VIVO, L [2, 6]: N.S.
- % Lowering dulcitol accumulation IN VIVO, L ([2]; 10.4 mg/kg, N.S. = not significant): N.S.

- inhibition at 0.04 µM [1]: 54%
- inhibition at 10 µM [1]: 97%
- inhibition at 1 µM [1]: 92%
- inhibition at 0.1 µM [1]: 77%
SMILES: COC(=O)N(CC(=O)O)C(=O)c1c(Br)ccc2c(C(F)(F)F)c(OC)ccc12 [Example 5, N-[[2-Bromo-6-methoxy-5-(trifluoromethyl)-1-naphthalenyl]carbonyl]-N-(methoxycarbonyl)glycine]
- % Lowering dulcitol accumulation IN VIVO, D ([2]; 51 mg/kg): 62%
- % Lowering dulcitol accumulation IN VIVO, L ([2]; 51 mg/kg, N.S. = not significant): N.S.
